This note sets out measurements from US6878751B1, “Administration of resveratrol to treat inflammatory respiratory disorders” (Imperial College of Science Technology and Medicine, priority 2000, dated 2005).

Assay [1] relates to NF-κB dependent transcription. The assay is described as follows: NF-κB luciferase reporter in stably transfected A549 cells. In kind it is cell-based, human. Here is the method: (§1) The expression of inflammatory genes was then evaluated in cells transformed with luciferase reporter genes containing sites for transcription factors (Tf, Tfs). The A549 cells were stably transfected by routine methods with luciferase reporters containing the transcription factors NF-κB, TRE (AP-1, TPA responsive element) and CRE (cAMP responsive element). Luciferase activity of cell lysates resuspended in […] cell lysis buffer mixed (40 mml resuspended lysate: 40 mml assay reagent) was measured using the Luciferase Assay System (Promega), with emitted light measured by a Turner DesignsTD-20/20 luminometer (Steptech Instruments Ltd., Stevenage, U.K.)

Assay [2] concerns CRE dependent transcription. The assay is described as follows: CRE luciferase reporter in stably transfected A549 cells. In kind it is cell-based, human. On the procedure:
as §1

As usually defined, the EC50 is the midpoint of the concentration-response curve. As for `C[C@@H]1C[C@H]2[C@@H]3CCC4=CC(=O)C=C[C@]4(C)[C@@]3(F)[C@@H](O)C[C@]2(C)[C@@]1(O)C(=O)CO` [Dexamethasone, dexamethasone, reference compound], in assay [1], the “extent of inhibition of NF-κB dependent transcription” value is 41%. The EC50 in assay [1] (Homo sapiens, read-out: EC50 for inhibition of NF-κB dependent transcription) was found to be 16 ± 12 µM; in assay [2] (Homo sapiens, read-out: EC50 for inhibition of CRE dependent transcription), 3.4 ± 3 µM. In addition, the “extent of inhibition of CRE dependent transcription” value in assay [2] turned out to be 62%.
